These results are taken from patent US7780978B2, “Oral pharmaceutical compositions and methods of using the same” (Childrens Hospital Los Angeles, priority 2003, dated 2010).

For series [1] the following is noted: cited from earlier work.
The nature of series [2]: Steady state plasma and tissue levels of 4-HPR in mice fed or gavaged LXS compositions vs capsule contents (HPLC). The note with it: mice, 120, 250 and 560 mg/kg/day. It counts as in vivo. The procedure:
FIG. 1. Comparison of 4-HPR in LXS matrix vs Capsule Formulation at 120 mg/kg/day. Cohorts of five mice were feed with 120 mg/kg/day of 4-HPR formulated in various LXS compositions, or 4-HPR expressed from capsules, mixed with mouse chow or Slim-Fast®, divided BID, ×4.5 days. Animals were sacrificed 3 hrs after the last dose and 4-HPR levels in plasma and tissues were assayed by HPLC. […] PLASMA: G1 vs capsule, P=0.006; LYM-X 5.59 vs capsule, P=0.06; LIVER: G1 vs capsule, P=0.013; LYM-X 5.59 vs capsule, P=0.045; LUNGS: G1 vs capsule, P=0.028; G2 vs capsule, P=0.05; KIDNEY: G1 vs capsule, P=0.007; LYM-X 5.59 vs capsule, P=0.06; BRAIN: G1 vs capsule, P=0.01; LYM-X 5.58 vs capsule, P=0.02. Statistical analysis by Student's t-test. Columns, in each set of columns, in sequence from left to right, represent LYM-X 5.57, LYM-X 5.58, LYM-X 5.60, LYM-X 5.59, Capsule Lot #R-6124, LYM-X 5.60 G1 (SLIMFAST™), and LYM-X 5.60 G2 (DI Water).
FIG. 2. Comparison of 4-HPR in LXS™ matrix vs Capsule Formulation at 250 mg/kg/day. […]
To test this hypothesis, we had various LXS™ compositions of 4-HPR prepared that varied in the LPC:MG:FA ratios of the LXS™ matrix. We then feed mice with equal doses of 4-HPR in the LXS™ compositions, or expressed as a slurry from the current oral 4-HPR capsules. […]

Consider `CC1=C(/C=C/C(C)=C/C=C/C(C)=C/C(=O)Nc2ccc(O)cc2)C(C)(C)CCC1` [Fenretinide, all-trans-N-(4-hydroxyphenyl)retinamide], for which the “solubility in aqueous solution” value in series [1] is “minimally soluble”. Moreover, in series [2], the “dose dependence of 4-HPR plasma and tissue levels” value is “dose-dependent”.
